How the values were obtained:
hypercholesterolemia = test: Pharmacological test against hypercholesterolemia (high cholesterol diet); assay type: in vivo; details: male SD rats, oral 200 mg/kg/day for 7 days; for Reduction Percentage, Cholesterol in beta-lipoprotein: heparin-calcium precipitation
Description: (ii) Pharmacological test against hypercholesterolemia:
Three groups of male SD rats each weighing ca. 150 g, each group consisting of five rats were used as the test animals and one group consisting of 10 rats was used as control. All animals were fed a high cholesterol diet consisted of 1% cholesterol, 0.2% sodium cholate, 5% olive oil and commercial diet up to total 100% for 7 days. The test compounds of the present invention and clofibrate, as a medicine for comparison, were respectively dissolved or dispersed in an aqueous 1% solution of CMC so that the volume of the solution or dispersion administered to each animal was 0.5 ml/100 g body weight/time, and the solution or dispersion was orally administered so that the amount of administration of each of the present pyrazole derivative or clofibrate was 200 mg/kg body weight/time. Actually, the administration was carried out once a day for 7 consecutive days. Water was taken ad lib. After 20 hours of fasting from the last administration, blood sample was taken by amputation of the carotid artery and the serum separated was frozen until the analysis of cholesterol shown as follows:
The content of serum cholesterol was determined by the above-mentioned method. The beta-lipoprotein-cholesterol was determined by "heparin-calcium precipitation method". The reduction percentages of cholesterol in serum and beta-lipoprotein were calculated in the same manner as above.

patients = details: administration to patients; cited from earlier work
hypertriglyceridemia = test: Pharmacological test against hypertriglyceridemia (fructose-induced); assay type: in vivo; details: serum, male SD rats, oral 3 times, 300 mg/kg as free carboxylic acid, after 48 hours, 10% fructose
Experimental: (i) Pharmacological test against hypertriglyceridemia:
The groups were made to be hypertriglyceridemia by giving an aqueous 10% by weight solution of fructose for 2 days, those of control group being given tap water. The administration of six kinds of the present derivatives and of nicotinic acid was as follows:
Each specimen of the present pyrazole derivatives and nicotinic acid was dissolved or dispersed into an aqueous 1% solution of carboxymethylcellulose (CMC) at a predetermined concentration, and the thus prepared solution or dispersion was orally administered 3 times in the volume of 0.5 ml/100 g body weight, that is, first dose just after the commencement of the present test, second dose after 24 hours of the first administration and third dose after 18 hours of the second administration. The dose of each compound was set so that each animal intaked 300 mg/kg of each compound as free carboxylic acid. The rats of control group were given the aqueous 1% solution of CMC only three times at the same intervals as the test groups. All the groups were fed with the same diet during the test period.
After 48 hours of the commencement of the test, blood sample was collected from each animal by amputation of the carotid artery, and serum was separated from the blood sample and frozen to be kept until lipid analysis.
Serum triglyceride was determined by Acetylacetone Method, and the reduction percentage of lipid was calculated by the following formula: [formula] wherein the amount is the average of the group.
Analysis for serum cholesterol:
The content of serum cholesterol was determined by an enzymatic method using cholesteroloxidase, and the reduction percentage of cholesterol was calculated by the following formula: [formula]

serum lipid = details: Kupiecki et al. 1968; cited from earlier work
blood sugar-level = details: Land et al. 1975; cited from earlier work

Row | SMILES | Reduction Percentage, Cholesterol in serum (hypercholesterolemia) [%] | Reduction Percentage, Cholesterol in beta-lipoprotein (hypercholesterolemia) [%] | Reduction Percentage, Cholesterol (hypertriglyceridemia) [%] | Reduction Percentage, Triglyceride (hypertriglyceridemia) [%] | other results
1 | CCOC(=O)C(C)(C)Oc1ccc(Cl)cc1 [Clofibrate, reference compound] | -3.5 | -2.0 |  |  | side effects (patients): causes the diseases in the bile duct system and is in danger of causing cancer
2 | CCCCCCCCCCCc1cc(C(=O)OCC)n[nH]1 [Ethyl 5-n-undecylpyrazole-3-carboxylate, ethyl 5-n-undecylpyrazole-3-carboxylate] |  |  | 53.1 | 83.7 | 
3 | CCCCCCCc1cc(C(=O)OCC)n[nH]1 [Ethyl 5-n-heptylpyrazole-3-carboxylate, ethyl 5-n-heptylpyrazole-3-carboxylate] |  |  | 2.1 | 41.1 | 
4 | CCCCCCCc1cc(C(=O)O)n[nH]1 [5-n-heptylpyrazole-3-carboxylic acid] |  |  | 12.5 | 40.6 | 
5 | O=C(O)c1cccnc1 [nicotinic acid, reference compound] |  |  | 16.4 | 24.1 | side effects (patients): causing flushing or eruptions on the face and skin
6 | CCCCCCCCCc1cc(C(=O)O)n[nH]1 [5-n-nonylpyrazole-3-carboxylic acid] | 11.1 | 0.6 | 12.2 | 66.5 | 
7 | CCCCCCCCCc1cc(C(=O)OCC)n[nH]1 [Ethyl 5-n-nonylpyrazole-3-carboxylate, ethyl 5-n-nonylpyrazole-3-carboxylate] |  |  | 29.5 | 63.1 | 
8 | CCCCCCCCCCCc1cc(C(=O)O)n[nH]1 [5-n-undecylpyrazole-3-carboxylic acid] | 22.8 | 20.1 | 40.0 | 69.1 | 
9 | Cc1cc(C(=O)O)n[nH]1 [5-Methylpyrazol-3-carboxylic acid] |  |  |  |  | activity to reduce the level of serum lipid (serum lipid): activity to reduce the level of serum lipid; clinical effect in treatment of hyperlipemia (blood sugar-level): uncertainty of the derivative's clinical effect in treatment of hyperlipemia; side effect on blood sugar level (blood sugar-level): causing the reduction of blood sugar-level

Reference: patent US4323576A, “Derivatives of pyrazole for use in therapy” (Morishita Pharmaceutical Co., Ltd., priority 1979, dated 1982)
